Like-named read-outs stand apart in the source and are kept apart here.
Legend:
[1] = target: T1, Arf1 (Homo sapiens, UniProt P84077); test: Active Arf1 Pull-Down and Detection Kit (GTP-bound Arf1); type: biochemical; settings: liver cancer Huh-7 cell lysate; FIG. 1
T1 construct: Active Arf1 was detected by using The Thermo Scientific Pierce Active Arf1 Pull-Down and Detection Kit (Cat #16121) with liver cancer Huh-7 cell lysate; endogenous in cells; host or cells: Huh-7 liver cancer cells (lysate)
T1 sequence (P84077 whole entry): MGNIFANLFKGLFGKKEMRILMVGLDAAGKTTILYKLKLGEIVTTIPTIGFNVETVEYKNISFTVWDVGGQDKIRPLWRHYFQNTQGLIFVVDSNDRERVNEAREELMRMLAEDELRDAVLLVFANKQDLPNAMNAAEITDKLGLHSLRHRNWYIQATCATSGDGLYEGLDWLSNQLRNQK
Description: Active Arf1 was detected by using The Thermo Scientific Pierce Active Arf1 Pull-Down and Detection Kit (Cat #16121) with liver cancer Huh-7 cell lysate. It is a complete kit for selective enrichment and detection of GTP-bound Arf1 GTPase through specific protein interaction with the GGA3 protein-binding domain (FIG. 1).

[2] = system: colorectal cancer cell line LoVo; test: In vitro cell line screening, LoVo; type: cell-based
Description: (§1) In different tumor cytotoxicity experiments in vitro (FIG. 2-FIG. 7), including colorectal cancer cell lines HT29 and LoVo cells, liver cancer cell Huh7, lung cancer cells H460 and A549, the arf1 inhibitor could all inhibit tumor cell growth (FIG. 2-FIG. 6), and there was a dose-dependent manner (FIG. 7).

[3] = system: liver cancer cell Huh7; test: In vitro cell line screening, Huh7; type: cell-based
Description: as §1

[4] = system: lung cancer cells H460; test: In vitro cell line screening, H460; type: cell-based
Description: as §1

[5] = system: lung cancer cells A549; test: In vitro cell line screening, A549; type: cell-based
Description: as §1

[6] = system: tumor cells; test: Tumor cytotoxicity experiments in vitro (all lines, general statements); type: cell-based; settings: HT29, LoVo, Huh7, H460, A549; FIG. 2-7
Description: as §1

[7] = system: CT-26 colon carcinoma; test: Drug-treated CT-26 cells in athymic nude mice; type: in vivo; design: unit not given here; settings: cells treated with 10 μM Du 102
Description: (§2) The immunogenicity of the reagents can be tested in mouse vaccination models (Obeid et al., 2007; Sagiv barfi et al., 2018). One flank of the mouse was injected with drug treated tumor cells, followed one week later by a second injection of syngeneic tumor cells. We tested the vaccine efficacy in CT-26 colon cancer, B16-F10 melanoma, and 4T1 breast cancer treated with DMSO or du102.
(§3) Cells will be treated with 10 μM Du 102 or DMSO treated CT26, 4T1 and B16-F10 tumor cells (5×10^5\1×10^5 and 5×10^5, respectively) were subcutaneously inoculated into 6-week-old female mice. After 7 days, equal amounts of corresponding tumor cells were seeded to the right side. Tumor cell lines were mixed with Matrigel (GIBCO, cat s̆ 354234) or resuspended in PBS and injected subcutaneously or intradermally.

[8] = system: CT-26 colon cancer; test: Vaccination model, drug-treated CT-26 cells in BALB/c mice; type: in vivo; design: tumor size, left side with drug treatment / tumors on right side after vaccination on left side: unit not given here; settings: CT-26, BALB/c mice; for tumor size, left side with drug treatment: cells treated with 10 μM Du 102; for tumors on right side after vaccination on left side: untreated cells re-challenge
[9] = system: B16-F10 melanoma; test: Drug-treated B16-F10 cells in athymic nude mice; type: in vivo; design: unit not given here; settings: cells treated with 10 μM Du 102
Description: as §2, §3

[10] = system: B16-F10 melanoma; test: Vaccination model, drug-treated B16-F10 cells in C57B/6 mice; type: in vivo; design: unit not given here; settings: B16-F10, C57B/6 mice; for tumor size, left side with drug treatment: cells treated with 10 μM Du 102
[11] = system: IL-1β; test: IL-1β assay, CD11c+ DCs co-cultured with treated CT26 cells; type: cell-based; settings: CT-26 colon cancer model, BALB/c mice; co-culture 2 days
Description: (§4) For IL-1 β Assay: seven days after CT26 cell lysate injection. CD11c+DCs were isolated from injected BALB/c mice and co cultured with CT26 cells treated with DMSO or du102. After 2 days, […] was measured in harvested cells (Table 11). For the IFN-y assay: CD11c^+ DC and CD8^+ T cells were isolated from injected BALB/c mice 7 days after CT26 cell lysate injection and co cultured with CT26 cells treated with DMSO or du102. After 2 days. IFN-y was measured in harvested cells (table 11).

[12] = system: INFγ; test: IFN-γ assay, CD11c+ DC and CD8+ T cells co-cultured with treated CT26 cells; type: cell-based; settings: CT-26 colon cancer model, BALB/c mice; co-culture 2 days
Description: as §4

[13] = system: chemokines and T cell activation markers; test: Chemokines and T cell activation markers by quantitative RT-PCR in MYC-ON mice; type: in vivo
Description: Chemokines and T cell activation markers were measured by quantitative RT-PCR in DMSO or du102 treated MYC-ON mice. CD8 T cell infiltration and immunostimulatory cytokine expression were increased as measured by quantitative RT-PCR. […] CCL5 and CXCL10 chemokines stimulate CD4+ and CD8+ lymphocytes tumor infiltration (Parkes et al., 2017), and CXCL10 and CXCL11 are T cell associated chemokines.

[14] = system: T cell activation markers; test: T cell activation markers, 4T1 breast carcinoma in BALB/c mice; type: in vivo; settings: DMSO 1.0
Description: Example 10. Du 102 Treatment Induces the Expression of T Cell Activation Markers of 4T1 Breast Cancer in BALB/c Mice

## 1H-indolo-5-carbaldehyde 5,6,7,8,9,10-hexahydrocycloocta[4,5]thieno[2,3-d]pyrimidin-4-ylhydrazone [Du 102]
[1]
  inhibition of arf1 activation: potent inhibitors
[2]
  tumor suppressive effect: some tumor suppressive effect
[2]; listed as Dul02
  tumor suppressive effect: effective tumor suppressive effects
[3]
  tumor suppressive effect: Tumor suppression effect
[3]; listed as Dul02
  tumor suppressive effect: effective tumor suppressive effects
[4]
  tumor suppressive effect: potency tumor suppressive effect
[4]; listed as Dul02
  tumor suppressive effect: effective tumor suppressive effects
[5]
  tumor suppressive effect: potency tumor suppressive effect
[5]; listed as Dul02
  tumor suppressive effect: effective tumor suppressive effects
[6]
  tumor suppressive / inhibitory effect on tumor cells: Some Tumor Suppressive Effect
[7]; Day 0
  CT-26 colon carcinoma tumor in Athymic mice: 0
[7]; Day 5
  CT-26 colon carcinoma tumor in Athymic mice: 0
[7]; Day 10
  CT-26 colon carcinoma tumor in Athymic mice: 15
[7]; Day 15
  CT-26 colon carcinoma tumor in Athymic mice: 117
[7]; Day 20
  CT-26 colon carcinoma tumor in Athymic mice: 417
[7]; Day 25
  CT-26 colon carcinoma tumor in Athymic mice: 859
[8]; tables 3 and 4
  regression of both left- and right-sided tumours: almost complete regression
[8]; Day 0
  tumor size, left side with drug treatment: 0
  tumors on right side after vaccination on left side: 0
[8]; Day 5
  tumor size, left side with drug treatment: 0
  tumors on right side after vaccination on left side: 0
[8]; Day 10
  tumor size, left side with drug treatment: 2
  tumors on right side after vaccination on left side: 0
[8]; Day 15
  tumor size, left side with drug treatment: 8
[8]; Day 20
  tumor size, left side with drug treatment: 57
  tumors on right side after vaccination on left side: 3.7
[8]; Day 25
  tumor size, left side with drug treatment: 81
  tumors on right side after vaccination on left side: 7.6
[8]; Day 30
  tumor size, left side with drug treatment: 178
  tumors on right side after vaccination on left side: 14.1
[9]; Day 0
  B16-F10 melanoma tumor in Athymic mice: 0
[9]; Day 5
  B16-F10 melanoma tumor in Athymic mice: 7.3
[9]; Day 10
  B16-F10 melanoma tumor in Athymic mice: 51.8
[9]; Day 15
  B16-F10 melanoma tumor in Athymic mice: 202.7
[9]; Day 20
  B16-F10 melanoma tumor in Athymic mice: 355.9
[9]; Day 25
  B16-F10 melanoma tumor in Athymic mice: 853.4
[10]; Day 0
  tumors on right side after vaccination on left side: 0
  tumor size, left side with drug treatment: 0
[10]; Day 5
  tumors on right side after vaccination on left side: 0
  tumor size, left side with drug treatment: 0
[10]; Day 10
  tumors on right side after vaccination on left side: 0
  tumor size, left side with drug treatment: 2
[10]; Day 15
  tumors on right side after vaccination on left side: 0.6
  tumor size, left side with drug treatment: 8
[10]; Day 20
  tumors on right side after vaccination on left side: 1.3
  tumor size, left side with drug treatment: 57
[10]; Day 25
  tumors on right side after vaccination on left side: 9.1
  tumor size, left side with drug treatment: 81
[10]; Day 30
  tumors on right side after vaccination on left side: 21.3
  tumor size, left side with drug treatment: 177
[11]
  IL-1β: 954
[12]
  INFγ: 623
[13]; DMSO 1.0
  Ccl5 expression: 2.4
  Col22 expression: 2.5
  Cxcl11 expression: 2.8
  GzmA expression: 2.3
  GzmB expression: 1.9
  IL-1β expression: 2.5
  PD-L1 expression: 0.4
  Perforin expression: 2.2
[13]; DMSO 1.1
  Cxcl10 expression: 3.1
  INFγ expression: 3.2
[14]
  Gzm8 expression: 2.3
  GzmA expression: 2.2
  IL-1β expression: 2.2
  INFγ expression: 2.1
  PD-L1 expression: 0.5
  Perforin expression: 2.5

From patent US20240382487A1, “NOVEL COPI/ARF1-LIPOLYSIS PATHWAY INHIBITOR AND COMPOUND FOR ERADICATING CANCER STEM CELLS AND INDUCING DAMP-MEDIATED ANTI-TUMOR IMMUNE RESPONSE” (FUDAN UNIVERSITY, priority 2020, published 2024)
